Earlier results as cited in article PMC9851200, “Multiparameter phenotypic screening for endogenous TFEB and TFE3 translocation identifies novel chemical series modulating lysosome function” (Autophagy, 2022).

How the values were obtained:
Parameters in all cases: method as in original PKIS2 published data
[1] = target: T1, kinases (KINOMEscan panel) (Homo sapiens, UniProt Q8TD19); conditions: NEK9; Published KINOMEscan; ref original PKIS2 published data; cited from earlier work
T1 sequence (Q8TD19 1-979): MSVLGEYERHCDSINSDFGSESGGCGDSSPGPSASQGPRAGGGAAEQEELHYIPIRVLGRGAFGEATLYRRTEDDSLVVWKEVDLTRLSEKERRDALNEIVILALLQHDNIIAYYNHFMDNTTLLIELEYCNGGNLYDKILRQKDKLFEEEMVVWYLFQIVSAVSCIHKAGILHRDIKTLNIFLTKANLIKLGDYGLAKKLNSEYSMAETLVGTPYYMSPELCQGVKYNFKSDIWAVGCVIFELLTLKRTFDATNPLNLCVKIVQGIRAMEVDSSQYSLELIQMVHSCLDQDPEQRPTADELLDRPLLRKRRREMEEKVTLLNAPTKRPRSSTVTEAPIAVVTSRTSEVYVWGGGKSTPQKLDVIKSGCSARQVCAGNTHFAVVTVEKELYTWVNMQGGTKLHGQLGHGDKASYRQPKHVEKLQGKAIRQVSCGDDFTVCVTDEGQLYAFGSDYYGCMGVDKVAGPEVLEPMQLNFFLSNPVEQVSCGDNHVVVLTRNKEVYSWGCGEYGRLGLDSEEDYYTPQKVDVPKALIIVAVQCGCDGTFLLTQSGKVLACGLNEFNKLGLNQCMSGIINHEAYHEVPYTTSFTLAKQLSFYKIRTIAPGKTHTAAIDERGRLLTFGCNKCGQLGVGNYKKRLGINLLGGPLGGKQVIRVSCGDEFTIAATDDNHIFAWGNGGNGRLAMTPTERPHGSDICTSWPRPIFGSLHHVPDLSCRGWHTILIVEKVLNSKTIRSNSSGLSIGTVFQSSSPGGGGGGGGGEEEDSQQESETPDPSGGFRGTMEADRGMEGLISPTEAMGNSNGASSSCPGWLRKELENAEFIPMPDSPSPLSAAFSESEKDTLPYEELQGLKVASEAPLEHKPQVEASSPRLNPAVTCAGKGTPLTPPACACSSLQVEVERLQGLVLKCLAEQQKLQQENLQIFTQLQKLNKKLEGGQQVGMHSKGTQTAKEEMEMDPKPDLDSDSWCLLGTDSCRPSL

[2] = target: T2, kinases (KINOMEscan panel) (Homo sapiens, UniProt Q9BXA7); conditions: kinase TSSK1B; Published KINOMEscan; ref original PKIS2 published data; cited from earlier work
T2 sequence (Q9BXA7 1-367): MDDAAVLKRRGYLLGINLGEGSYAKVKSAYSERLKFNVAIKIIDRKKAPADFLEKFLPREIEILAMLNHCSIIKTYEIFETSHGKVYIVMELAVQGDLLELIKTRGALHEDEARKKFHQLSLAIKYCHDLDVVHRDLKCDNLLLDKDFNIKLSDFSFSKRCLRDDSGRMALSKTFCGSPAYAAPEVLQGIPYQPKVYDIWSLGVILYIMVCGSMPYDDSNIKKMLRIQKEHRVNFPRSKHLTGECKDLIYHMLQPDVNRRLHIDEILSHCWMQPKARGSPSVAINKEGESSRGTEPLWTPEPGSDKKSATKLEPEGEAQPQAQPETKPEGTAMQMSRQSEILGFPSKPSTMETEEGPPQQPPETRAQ

[3] = target: kinases (KINOMEscan panel) (Homo sapiens, UniProt P49759); conditions: kinase CLK1; Published KINOMEscan; ref original PKIS2 published data; cited from earlier work
[4] = target: kinases (KINOMEscan panel) (Homo sapiens, UniProt Q9HC98); conditions: kinase NEK6; Published KINOMEscan; ref original PKIS2 published data; cited from earlier work
[5] = target: T3, kinases (KINOMEscan panel) (Homo sapiens, UniProt O00329); conditions: Published KINOMEscan; ref original PKIS2 published data; cited from earlier work
T3 sequence (O00329 1-1044): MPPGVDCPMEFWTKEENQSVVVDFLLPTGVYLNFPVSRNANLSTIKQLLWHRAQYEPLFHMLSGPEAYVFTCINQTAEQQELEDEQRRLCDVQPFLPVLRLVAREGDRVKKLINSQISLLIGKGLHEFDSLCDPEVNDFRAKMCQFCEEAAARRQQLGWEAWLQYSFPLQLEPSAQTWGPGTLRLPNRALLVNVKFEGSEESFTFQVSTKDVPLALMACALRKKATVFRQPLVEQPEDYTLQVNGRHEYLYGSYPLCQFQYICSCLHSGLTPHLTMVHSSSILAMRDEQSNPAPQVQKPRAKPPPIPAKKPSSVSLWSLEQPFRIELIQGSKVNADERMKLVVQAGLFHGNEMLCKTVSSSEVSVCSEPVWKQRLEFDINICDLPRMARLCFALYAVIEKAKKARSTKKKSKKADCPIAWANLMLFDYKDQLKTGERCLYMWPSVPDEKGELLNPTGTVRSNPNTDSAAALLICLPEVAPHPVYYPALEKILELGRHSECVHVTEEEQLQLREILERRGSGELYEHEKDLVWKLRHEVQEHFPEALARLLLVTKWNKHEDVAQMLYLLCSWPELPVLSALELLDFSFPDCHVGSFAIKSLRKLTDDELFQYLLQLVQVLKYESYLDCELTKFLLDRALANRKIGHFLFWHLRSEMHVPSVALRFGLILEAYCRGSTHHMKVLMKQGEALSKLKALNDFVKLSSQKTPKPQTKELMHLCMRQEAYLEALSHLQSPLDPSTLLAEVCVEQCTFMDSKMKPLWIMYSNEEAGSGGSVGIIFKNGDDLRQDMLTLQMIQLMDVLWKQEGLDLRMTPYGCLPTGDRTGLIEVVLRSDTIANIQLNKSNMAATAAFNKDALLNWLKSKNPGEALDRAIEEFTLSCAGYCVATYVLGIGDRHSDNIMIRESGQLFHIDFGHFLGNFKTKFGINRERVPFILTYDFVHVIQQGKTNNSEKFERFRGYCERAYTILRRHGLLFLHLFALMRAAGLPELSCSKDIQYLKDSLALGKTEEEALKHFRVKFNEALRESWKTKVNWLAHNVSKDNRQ

[6] = target: kinases (KINOMEscan panel) (Homo sapiens, UniProt Q8TDX7); conditions: NEK7; Published KINOMEscan; ref original PKIS2 published data; cited from earlier work
[7] = target: kinases (KINOMEscan panel) (Homo sapiens, UniProt P78368); conditions: kinase CSNK1G2; Published KINOMEscan; ref original PKIS2 published data; cited from earlier work
Sequence of kinases (KINOMEscan panel) (Homo sapiens, UniProt P78368) (P78368 whole entry): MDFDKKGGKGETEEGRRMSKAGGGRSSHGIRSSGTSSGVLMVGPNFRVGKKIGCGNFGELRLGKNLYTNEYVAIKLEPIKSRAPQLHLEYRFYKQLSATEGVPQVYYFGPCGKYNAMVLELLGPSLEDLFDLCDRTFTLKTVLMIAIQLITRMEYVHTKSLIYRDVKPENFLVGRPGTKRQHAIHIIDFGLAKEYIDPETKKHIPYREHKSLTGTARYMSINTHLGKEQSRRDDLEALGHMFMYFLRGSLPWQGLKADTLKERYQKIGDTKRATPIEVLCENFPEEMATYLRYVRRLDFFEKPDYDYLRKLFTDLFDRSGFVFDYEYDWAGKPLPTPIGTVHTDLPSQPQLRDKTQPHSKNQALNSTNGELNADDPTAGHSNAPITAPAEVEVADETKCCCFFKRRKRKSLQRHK

Sequence of kinases (KINOMEscan panel) (Homo sapiens, UniProt P49759) (P49759 whole entry): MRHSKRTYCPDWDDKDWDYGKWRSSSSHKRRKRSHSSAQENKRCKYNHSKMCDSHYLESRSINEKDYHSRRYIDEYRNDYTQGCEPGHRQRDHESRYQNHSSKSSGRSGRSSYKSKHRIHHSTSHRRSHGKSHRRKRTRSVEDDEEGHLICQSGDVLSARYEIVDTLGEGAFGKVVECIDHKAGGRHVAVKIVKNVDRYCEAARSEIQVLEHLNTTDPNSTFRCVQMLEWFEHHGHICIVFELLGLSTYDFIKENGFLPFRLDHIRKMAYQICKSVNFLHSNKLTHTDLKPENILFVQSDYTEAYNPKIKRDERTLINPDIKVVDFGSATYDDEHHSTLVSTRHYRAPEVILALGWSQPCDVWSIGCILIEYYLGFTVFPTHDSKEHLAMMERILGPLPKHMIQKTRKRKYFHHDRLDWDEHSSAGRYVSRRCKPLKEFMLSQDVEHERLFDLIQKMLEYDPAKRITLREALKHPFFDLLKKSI
Sequence of kinases (KINOMEscan panel) (Homo sapiens, UniProt Q8TDX7) (Q8TDX7 whole entry): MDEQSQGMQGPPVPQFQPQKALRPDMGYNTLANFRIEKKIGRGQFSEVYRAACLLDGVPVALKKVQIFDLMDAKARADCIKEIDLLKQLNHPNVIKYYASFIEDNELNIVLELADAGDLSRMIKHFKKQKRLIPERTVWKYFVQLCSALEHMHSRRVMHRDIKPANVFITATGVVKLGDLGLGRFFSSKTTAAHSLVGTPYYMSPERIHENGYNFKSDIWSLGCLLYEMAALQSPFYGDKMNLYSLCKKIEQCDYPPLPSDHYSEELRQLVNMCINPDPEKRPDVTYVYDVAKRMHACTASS
Sequence of kinases (KINOMEscan panel) (Homo sapiens, UniProt Q9HC98) (Q9HC98 whole entry): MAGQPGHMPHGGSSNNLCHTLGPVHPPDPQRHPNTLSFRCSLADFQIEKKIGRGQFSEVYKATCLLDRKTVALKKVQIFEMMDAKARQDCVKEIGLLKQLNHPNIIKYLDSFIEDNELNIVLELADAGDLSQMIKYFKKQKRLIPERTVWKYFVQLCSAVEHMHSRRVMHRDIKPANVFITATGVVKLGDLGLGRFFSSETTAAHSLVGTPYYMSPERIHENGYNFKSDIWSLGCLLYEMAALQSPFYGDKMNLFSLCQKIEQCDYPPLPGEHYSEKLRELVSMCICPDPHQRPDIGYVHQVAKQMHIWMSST

## Cc1cccc(-c2nc(Nc3ccncc3)c3ccccc3n2)n1 [NK215]
[1]
  KINOMEscan NEK9: 0
[2]
  KINOMEscan TSSK1B: 0
[3]
  KINOMEscan CLK1: 10
[4]
  KINOMEscan NEK6: 21
[5]
  KINOMEscan PIK3CD: 0
[6]
  KINOMEscan NEK7: 0
[7]
  KINOMEscan CSNK1G2: 20
